Converted amounts (≈) assume the structure as drawn.
Tests used:
[1] = Protein binding in Swiss mouse plasma at 1 to 10 uM after 4 hrs by LC-MS/MS analysis; format: ADME, cell-free; conditions: read-out: PPB (converted)
[2] = Protein binding in human plasma at 1 to 10 uM after 4 hrs by LC-MS/MS analysis; format: ADME, cell-free; conditions: read-out: PPB (converted)
[3] = Half life in Balb/c mouse infected with Mycobacterium tuberculosis H37Rv at 100 mg/kg, po administered through gavage as 90%/10% PEG200/vitamin -E TPGS formulation; format: ADME, organism-based; conditions: in vivo
[4] = test system: Mycobacterium tuberculosis; experiment: (§1) Antimycobacterial activity against Mycobacterium tuberculosis H37Rv infected in Balb/c mouse assessed as bacterial burden in lungs at 50 mg/kg, po administered daily through gavage starting on day 2 post infection for 4 days per week for 2 weeks as Vitamin-E/PEG200 formulation each 4 days dosing followed by 2 days compound washout measured on day 12 post infection (reference value: 8 log10CFU); format: functional, Lung
[5] = test system: Mycobacterium tuberculosis; experiment: Antimycobacterial activity against Mycobacterium tuberculosis H37Rv in 100000 bacteria inoculated agar plate; format: functional
[6] = test system: Mycobacterium tuberculosis; experiment: Antimycobacterial activity against Mycobacterium tuberculosis H37Rv incubated for 5 days in presence of 25% mouse serum by Bactiter-Glo assay; format: functional; conditions: 120 h
[7] = AUC in Balb/c mouse plasma infected with Mycobacterium tuberculosis H37Rv at 100 mg/kg, po administered through gavage as 90%/10% PEG200/vitamin -E TPGS formulation; format: ADME, organism-based
[8] = Lipophilicity, log P of compound; conditions: octanol/water
[9] = test system: Mycobacterium tuberculosis; experiment: as §1, with “200” for “50”; format: functional, Lung
[10] = test system: Mycobacterium tuberculosis; experiment: Antimycobacterial activity against Mycobacterium tuberculosis H37Rv incubated for 5 days by Bactiter-Glo assay; format: functional; conditions: 120 h
[11] = Time at which lung concentration stays above invitro MIC80 in presence of mouse serum in Balb/c mouse infected with Mycobacterium tuberculosis H37Rv at 100 mg/kg, po administered through gavage as 90%/10% PEG200/vitamin -E TPGS formulation; format: ADME, organism-based; conditions: in vivo
[12] = test system: Mycobacterium tuberculosis; experiment: Antimycobacterial activity against Mycobacterium tuberculosis H37Rv infected in Balb/c mouse assessed as bacterial burden in lungs at 10 to 300 mg/kg administered daily through gavage for 4 days separated by 2 days drug wash out followed by second 4 days drug treatment; format: functional, Lung
[13] = molecular target: T1, Cytochrome P450 3A4 (Homo sapiens, UniProt P08684); experiment: Inhibition of CYP3A4 in human liver microsomes assessed as 1'-hydroxymidazolam metabolite formation using midazolam as substrate incubated for 10 mins by HPLC-MS method
T1 sequence (P08684 whole entry): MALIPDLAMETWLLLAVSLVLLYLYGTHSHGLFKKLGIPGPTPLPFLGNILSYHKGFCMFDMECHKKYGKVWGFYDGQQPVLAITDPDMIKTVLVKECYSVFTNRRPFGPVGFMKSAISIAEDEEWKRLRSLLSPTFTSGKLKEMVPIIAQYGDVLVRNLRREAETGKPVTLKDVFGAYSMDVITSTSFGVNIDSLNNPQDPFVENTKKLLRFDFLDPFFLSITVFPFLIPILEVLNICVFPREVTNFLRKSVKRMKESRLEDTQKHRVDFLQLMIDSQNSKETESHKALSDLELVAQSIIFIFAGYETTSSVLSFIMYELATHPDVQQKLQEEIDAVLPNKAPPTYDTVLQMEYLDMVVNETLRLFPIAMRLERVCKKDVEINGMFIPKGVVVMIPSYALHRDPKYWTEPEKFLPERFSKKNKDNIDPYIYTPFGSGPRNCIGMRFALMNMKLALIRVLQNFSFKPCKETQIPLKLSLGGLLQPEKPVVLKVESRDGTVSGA

[14] = test system: Mycobacterium tuberculosis; experiment: as §1, with “25” for “50”; format: functional, Lung
[15] = Ratio of drug level in Mycobacterium tuberculosis H37Rv infected Balb/c mouse lung to plasma at 100 mg/kg, po administered through gavage as 90%/10% PEG200/vitamin -E TPGS formulation; format: ADME, organism-based; conditions: lung and plasma
[16] = test system: Mycobacterium tuberculosis; experiment: as §1, with “100” for “50”; format: functional, Lung
[17] = Permeability in human Caco2 cells; conditions: caco-2
[18] = Aqueous equilibrium solubility of compound in pH 7.4 solution at 20 degC; conditions: aqueous pH 7.4 solution
[19] = test system: Mycobacterium tuberculosis; experiment: Antimycobacterial activity against Mycobacterium tuberculosis H37Rv infected in Balb/c mouse assessed as bacterial burden in lungs at 10 to 300 mg/kg administered daily through gavage starting on day 2 post infection for 8 consecutive days; format: functional, Lung
[20] = molecular target: T1, Cytochrome P450 3A4; experiment: Inhibition of CYP3A4 in human liver microsomes assessed as 6-beta-hydroxytestosterone metabolite formation using testosterone as substrate incubated for 30 mins by HPLC-MS method
[21] = Cytotoxicity against human HepG2 cells assessed as reduction in cell viability after 40 hrs by Celltiter-Glo assay; conditions: HepG2 cells
[22] = test system: Mycobacterium tuberculosis; experiment: Ratio of MIC80 for Mycobacterium tuberculosis H37Rv in presence of 25% human serum to MIC80 for Mycobacterium tuberculosis H37Rv; format: functional
[23] = test system: Mycobacterium tuberculosis; experiment: Antimycobacterial activity against Mycobacterium tuberculosis H37Rv incubated for 5 days in presence of 25% human serum by Bactiter-Glo assay; format: functional; conditions: 120 h
[24] = Aqueous equilibrium solubility of compound in pH 1 solution at 20 degC; conditions: aqueous pH 1 solution
[25] = Solubility in 90%/10% PEG200/vitamin -E TPGS solution; format: physicochemical
[26] = Oral bioavailability in Swiss mouse at 100 mg/kg administered as single dose through gavage as 90%/10% PEG200/vitamin -E TPGS formulation after 24 hrs; format: ADME, organism-based; conditions: in vivo
[27] = test system: Mycobacterium tuberculosis; experiment: as §1, with “12.5” for “50”; format: functional, Lung
[28] = test system: Mycobacterium tuberculosis; experiment: Antimycobacterial activity against Mycobacterium tuberculosis H37Rv infected in po dosed Balb/c mouse assessed as reduction in bacterial burden in lungs administered daily through gavage starting on day 2 post infection for 8 consecutive days; format: functional; conditions: Lung, 48 h, read-out: MED
[29] = test system: Mycobacterium tuberculosis; experiment: Antimycobacterial activity against Mycobacterium tuberculosis H37Rv in 1000 bacteria inoculated agar plate; format: functional
[30] = Time at which plasma concentration stays above invitro MIC80 in presence of mouse serum in Balb/c mouse infected with Mycobacterium tuberculosis H37Rv at 100 mg/kg, po administered through gavage as 90%/10% PEG200/vitamin -E TPGS formulation; format: ADME, organism-based; conditions: in vivo
[31] = test system: Mycobacterium tuberculosis; experiment: Antimycobacterial activity against GFP-tagged Mycobacterium tuberculosis H37Rv infected in mouse RAW264.7 cells incubated for 4 days by Mask blue/Hoechst/FITC staining based fluorescence microscopic analysis; format: functional; conditions: 96 h

Compound: Cn1c(NCCc2ccc(-c3ccc(F)cc3)cc2)nc2cc(Cl)ccc2c1=O
- fraction unbound at 4 h [1]: 0.001
- fraction unbound at 4 h [2]: 0.001
- half-life [3]: 480 min
- Activity [4]: 7.4 log10CFU
- MIC [5]: 2 µg/mL (≈ 4.9 µM)
- MIC80 [6]: 0.034 µM
- AUC [7]: 76000 ng·h/mL
- logP [8]: 5.28
- Activity [9]: 7.6 log10CFU
- MIC80 [10]: 3 nM (≈ 0.00122 µg/mL)
- Time [11]: > 24 h
- Activity [12]: 1.5 log10CFU
- IC50 [13]: > 30 µM
- Activity [14]: 7.6 log10CFU
- Kp [15]: 14
- Activity [16]: 7.6 log10CFU
- permeability [17]: Permeable
- solubility thermodynamic [18]: < 1 µg/mL
- Activity [19]: 0.78 log10CFU
- IC50 [20]: 18 µM
- IC50 at 40 h [21]: 22 µM
- Ratio [22]: 8
- MIC80 [23]: 0.025 µM
- solubility thermodynamic [24]: < 1 µg/mL
- solubility [25]: 20 mg/mL (≈ 49000 µM)
- bioavailability [26]: 73%
- Activity [27]: 7.7 log10CFU
- minimal effective dose [28]: 300 mg/kg
- MIC [29]: 0.016 µg/mL (≈ 0.0392 µM)
- Time [30]: > 24 h
- MIC80 [31]: 0.06 µM (≈ 0.0245 µg/mL)

— ChEMBL document CHEMBL3853353, “Identification and optimization of a new series of anti-tubercular quinazolinones” (Bioorg Med Chem Lett, 2016)
